Drawing on patent US20150011528A1, “PHENYLIMIDE-CONTAINING BENZOTHIAZOLE DERIVATIVE OF ITS SALT AND PHARMACEUTICAL COMPOSITION COMPRISING THE SAME” (YUHAN CORPORATION, priority 2011, published 2015), this text covers IC50 for 37 compounds.

As usually defined, the IC50 is the midpoint of a concentration-inhibition curve. Low readings indicate greater potency, high ones weaker potency.

The first assay relates to A549 cells. The experiment in a line: Cell Migration Assay (transwell, laminin). In kind it is cell-based. The following applies: Homo sapiens, laminin 10 μg/mL in lower well, test compounds 0.39˜100 μM, 6 hours at 37° C. The procedure:
Cell migration was measured with a 24-well transwell having a polycarbonate membrane (8.0 μm pore size, Costar) at the bottom of the upper chamber. Each lower well was treated with laminin (10 μg/mL) and test compounds (0.39˜100 μM) along with a serum-free RPMI1640 medium. A549 cells (Korean Cell Line Bank) were suspended in a serum-free RPMI1640 medium at a concentration of 1×10^6 cells/mL and then the test compounds were added thereto at the indicated concentrations. Each resulting solution (100 μL) was added to the upper chamber. The cells were cultured at 37° C. for 6 hours in a CO2 incubator. The upper chamber was taken out and then the cells were fixed with PBS containing 70% methyl alcohol for 10 minutes, followed by washing with PBS twice. The cells were stained with hematoxylin (Sigma) for 10 minutes and then washed with distilled water. The non-migrated cells were removed from the upper portion of the polycarbonate membrane with a cotton swab. The membranes were excised and separated from the chamber, and then mounted to a slide using a gel mount reagent (Biomeda, USA). The migrated cells (attached to the lower face of the membrane) were counted at three randomly selected sites under a microscope (×20). The cell counting was performed with the Image J program. From the counted cell numbers, each IC50 value was calculated by non-linear regression curve fit using the “GraphPad Prism” program.
The cells are pulled by laminin residing in the lower chamber and then passed through the polycarbonate membrane, so as to attach to the lower face of the membrane.
The compound `COc1ccc2c(sc(=NC(=O)c3cccc(Cl)c3)n2CC(=O)O)c1F` [Example 396, 2-(2-((3-chlorobenzoyl)imino)-7-fluoro-6-methoxybenzo[d]thiazol-3(2H)-yl)acetic acid] had an IC50 of 43 µM.

The compound `Cc1ccc(C(=O)N=c2sc3c(C)cccc3n2C(C)C(=O)O)cc1` (stereo not shown) [Example 103, 2-[7-methyl-2-(4-methylbenzoylimino)benzo[d]thiazol-3(2H)-yl]propionic acid] displayed an IC50 of 28 µM.

In turn, `COc1cccc2sc(=NC(=O)c3cccc(Cl)c3)n(C(C)C(=O)O)c12` (stereo not shown) [Example 282, 2-(2-(3-chlorobenzoylimino)-4-methoxybenzo[d]thiazol-3(2H)-yl)propionic acid] came in with an IC50 of 25 µM.

In the case of `O=C(O)Cn1c(=NC(=O)c2cccc(Cl)c2)sc2c(Cl)cccc21` [Example 358, 2-(7-chloro-2-((3-chlorobenzoyl)imino)benzo[d]thiazol-3(2H)-yl)acetic acid], the midpoint of inhibition, the IC50, lay at 29.4 µM.

With `CC(C(=O)O)n1c2c(sc1=NC(=O)c1cccc(C(F)(F)F)c1)CCCC2` (stereo not shown) [Example 295, 2-(2-(3-(trifluoromethyl)benzoylimino)-4,5,6,7-tetrahydrobenzo[d]thiazol-3(2H)-yl)propionic acid], the half-maximal inhibitory concentration (IC50) is 60 µM.

Compound `CC(C(=O)O)n1c(=NC(=O)c2cccc(Cl)c2)sc2c(C(F)(F)F)cccc21` (stereo not shown) [Example 270, 2-(2-(3-chlorobenzoylimino)-7-(trifluoromethyl)benzo[d]thiazol-3(2H)-yl)propionic acid] yielded an IC50 of 1 µM.

`CC(C(=O)O)n1c(=NC(=O)c2ccc(F)c(Cl)c2)sc2cc(F)c(F)cc21` (stereo not shown) [Example 466, 2-(2-((3-chloro-4-fluorobenzoyl)imino)-5,6-difluorobenzo[d]thiazol-3(2H)-yl)propionic acid] gave an IC50 of 49 µM.

On to `Cc1cc2sc(=NC(=O)c3cccc(Cl)c3)n(C(C)C(=O)O)c2cc1C` (stereo not shown) [Example 212, 2-(2-((3-chlorobenzoyl)imino)-5,6-dimethylbenzo[d]thiazol-3(2H)-yl)propionic acid], for which the IC50 was 33 µM.

Consider `Cc1ccc(C(=O)N=c2sc3c(F)cc(F)cc3n2C(C)C(=O)O)cc1` (stereo not shown) [Example 455, 2-(5,7-difluoro-2-((4-methylbenzoyl)imino)benzo[d]thiazol-3(2H)-yl)propionic acid], for which the IC50 worked out at 80 µM.

`CCC(C(=O)O)n1c(=NC(=O)c2ccc(C)cc2)sc2ccc(F)cc21` (stereo not shown) [Example 90, 2-[5-fluoro-2-(4-methylbenzoylimino)benzo[d]thiazol-3(2H)-yl]butanoic acid] displayed an IC50 of 31.6 µM.

In turn, `CCC(C(=O)O)n1c(=NC(=O)c2ccc(C)cc2)sc2cc(C)c(C)cc21` (stereo not shown) [Example 6, 2-{5,6-dimethyl-2-[(4-methylbenzoyl)imino]benzo[d]thiazol-3(2H)-yl}butanoic acid] yielded a 50% inhibitory concentration (IC50) of 26.5 µM.

With `CCOc1ccc2c(c1)sc(=NC(=O)c1cccc(C(F)(F)F)c1)n2C(C)C(=O)O` (stereo not shown) [Example 192, 2-(6-ethoxy-2-((3-(trifluoromethyl)benzoyl)imino)benzo[d]thiazol-3(2H)-yl)propionic acid], it took 33 µM to reach half-maximal inhibition (IC50).

Take `CCC(C(=O)O)n1c(=NC(=O)c2ccc(OC)cc2)sc2ccccc21` (stereo not shown) [Example 60, 2-[2-(4-methoxybenzoylimino)benzo[d]thiazol-3(2H)-yl]butanoic acid]: the IC50 worked out at 26.9 µM.

`O=C(O)Cn1c(=NC(=O)c2cccc(Cl)c2)sc2c(F)cccc21` [Example 347, 2-(2-((3-chlorobenzoyl)imino)-7-fluorobenzo[d]thiazol-3(2H)-yl)acetic acid] yielded an IC50 of 109 µM.

For the compound `CC(C(=O)O)n1c(=NC(=O)c2ccc(C(F)(F)F)cc2)sc2ccccc21` (stereo not shown) [Example 186, 2-(2-(4-(trifluoromethyl)benzoylimino)benzo[d]thiazol-3(2H)-yl)propionic acid], the half-maximal inhibitory concentration (IC50) stood at 101 µM.

For the compound `CCCCCCC(C(=O)O)n1c(=NC(=O)c2ccc(C)cc2)sc2ccccc21` (stereo not shown) [Example 147, 2-[2-(4-methylbenzoylimino)benzo[d]thiazol-3(2H)-yl]octanoic acid], the IC50 was 5.7 µM.

`COc1ccc2c(c1)sc(=NC(=O)c1cccc(C(F)(F)F)c1)n2C(C)C(=O)O` (stereo not shown) [Example 189, 2-(6-methoxy-2-((3-(trifluoromethyl)benzoyl)imino)benzo[d]thiazol-3(2H)-yl)propionic acid] returned an IC50 of 87 µM.

The compound `CCC(C(=O)O)n1c(=NC(=O)c2ccc(C)cc2)sc2cc(C)c(F)cc21` (stereo not shown) [Example 16, 2-{5-fluoro-6-methyl-2-[(4-methylbenzoyl)imino]benzo[d]thiazol-3(2H)-yl}butanoic acid] displayed an IC50 of 11.8 µM.

As for `O=C(O)Cn1c(=NC(=O)c2cccc(Cl)c2)sc2ccccc21` [Example 123, 2-[2-(3-chlorobenzoylimino)benzo[d]thiazol-3(2H)-yl]acetic acid], the half-inhibitory concentration (IC50) is 40.1 µM.

Take `CCC(C(=O)O)n1c(=NC(=O)c2ccc(C)cc2)sc2ccc(C)cc21` (stereo not shown) [Example 100, 2-[5-methyl-2-(4-methylbenzoylimino)benzo[d]thiazol-3(2H)-yl]butanoic acid]: the IC50 was determined as 43 µM.

For `Cc1cccc2c1sc(=NC(=O)c1cccc(C(F)(F)F)c1)n2C(C)C(=O)O` (stereo not shown) [Example 314, 2-(7-methyl-2-(3-(trifluoromethyl)benzoylimino)benzo[d]thiazol-3(2H)-yl)propionic acid], 46 µM corresponded to half-maximal inhibition (IC50).

In turn, `CCC(C(=O)O)n1c(=NC(=O)c2ccc(C)cc2)sc2cc([N+](=O)[O-])ccc21` (stereo not shown) [Example 23, 2-{2-[(4-methylbenzoyl)imino]-6-nitrobenzo[d]thiazol-3(2H)-yl}butanoic acid] gave an IC50 of 23.7 µM.

In turn, `CCC(C(=O)O)n1c(=NC(=O)c2cccc(Cl)c2)sc2cc3c(cc21)OCO3` (stereo not shown) [Example 240, 2-(6-((3-chlorobenzoyl)imino)-[1,3]dioxolo[4′,5′:4,5]benzo[1,2-d]thiazol-7(6H)-yl)butanoic acid] came in with a half-maximal inhibitory concentration (IC50) of 16 µM.

`CCC(C(=O)O)n1c(=NC(=O)c2cccc(Br)c2)sc2ccccc21` (stereo not shown) [Example 83, 2-[2-(3-bromobenzoylimino)benzo[d]thiazol-3(2H)-yl]butanoic acid] displayed an IC50 of 12.3 µM.

`CCC(C(=O)O)n1c(=NC(=O)c2ccc(C)cc2)sc2cc(OC(F)(F)F)ccc21` (stereo not shown) [Example 14, 2-{2-[(4-methylbenzoyl)imino]-6-(trifluoromethoxy)benzo[d]thiazol-3(2H)-yl]butanoic acid] displayed an IC50 of 21.5 µM.

Compound `CC(C(=O)O)n1c(=NC(=O)c2cccc(Cl)c2)sc2c(F)cccc21` (stereo not shown) [Example 373, 2-(2-((3-chlorobenzoyl)imino)-7-fluorobenzo[d]thiazol-3(2H)-yl)propionic acid] gave an IC50 of 92.4 µM.

For `CCC(C(=O)O)n1c(=NC(=O)c2ccc(F)c(Cl)c2)sc2cc(F)c(F)cc21` (stereo not shown) [Example 467, 2-(2-((3-chloro-4-fluorobenzoyl)imino)-5,6-difluorobenzo[d]thiazol-3(2H)-yl)butanoic acid], the midpoint of inhibition, the IC50, lay at 19 µM.

With `Cc1ccc2c(c1)sc(=NC(=O)c1cccc(C(F)(F)F)c1)n2C(C)C(=O)O` (stereo not shown) [Example 195, 2-(6-methyl-2-((3-(trifluoromethyl)benzoyl)imino)benzo[d]thiazol-3(2H)-yl)propionic acid], the half-maximal inhibitory concentration (IC50) was found to be 87 µM.

In turn, `CC(C(=O)O)n1c(=NC(=O)c2cccc(C(F)(F)F)c2)sc2c(F)cccc21` (stereo not shown) [Example 346, 2-(7-fluoro-2-((3-(trifluoromethyl)benzoyl)imino)benzo[d]thiazol-3(2H)-yl)propionic acid] gave an IC50 of 124 µM.

`CCC(C(=O)O)n1c(=NC(=O)c2ccc(C)cc2)sc2cc(F)ccc21` (stereo not shown) [Example 153, 2-[6-fluoro-2-(4-methylbenzoylimino)benzo[d]thiazol-3(2H)-yl]butanoic acid] came in with a half-inhibitory concentration (IC50) of 31.1 µM.

Take `CCC(C(=O)O)n1c(=NC(=O)c2cccc(Cl)c2)sc2c(F)cc(F)cc21` (stereo not shown) [Example 462, 2-(2-((3-chlorobenzoyl)imino)-5,7-difluorobenzo[d]thiazol-3(2H)-yl)butanoic acid]: the IC50 worked out at 43 µM.

The compound `CCC(C(=O)O)n1c(=NC(=O)c2cccc(Cl)c2)sc2cc(C(F)(F)F)ccc21` (stereo not shown) [Example 173, 2-(2-((3-chlorobenzoyl)imino)-6-(trifluoromethyl)benzo[d]thiazol-3(2H)-yl)butanoic acid] registered an IC50 of 16.5 µM.

In the case of `CCC(C(=O)O)n1c(=NC(=O)c2cc(Cl)cc(Cl)c2)sc2cc(F)c(F)cc21` (stereo not shown) [Example 468, 2-(2-((3,5-dichlorobenzoyl)imino)-5,6-difluorobenzo[d]thiazol-3(2H)-yl)butanoic acid], the IC50 amounted to 41 µM.

`CCOc1ccc2c(sc(=NC(=O)c3cccc(Cl)c3)n2C(CC)C(=O)O)c1F` (stereo not shown) [Example 427, 2-(2-((3-chlorobenzoyl)imino)-6-ethoxy-7-fluorobenzo[d]thiazol-3(2H)-yl)butanoic acid] showed an IC50 of 18 µM.

Staying with this assay, now noted: laminin 10 μg/mL in lower well, test compounds 0.39˜100 μM, 6 hours at 37° C.
`CCC(C(=O)O)n1c(=NC(=O)c2cc(F)cc(C(F)(F)F)c2)sc2cc(F)c(F)cc21` (stereo not shown) [Example 469] gave an IC50 of 66 µM.

Turning to `Cc1ccc(C(=O)N=c2sc3ccccc3n2C(C(=O)O)c2ccccc2)cc1` (stereo not shown) [Example 152], inhibition was half-maximal at 22.7 µM (IC50).

The compound `CCC(C(=O)O)n1c(=NC(=O)c2ccc(F)c(C(F)(F)F)c2)sc2cc(F)c(F)cc21` (stereo not shown) [Example 471] yielded an IC50 of 32 µM.
